# According to patent US20260364184A1, “COMPOUND BASED ON OXOISOINDOLINYL-SUBSTITUTED TETRAHYDROPYRIMIDINE-DIONE AND USE THEREOF” (GLUETACS THERAPEUTICS (SHANGHAI) CO., LTD., priority 2023, published 2026):
# Biological target: T1, IRAK4 (Homo sapiens, UniProt Q9NWZ3)
# T1 construct: expression of target proteins in cells; endogenous in cells
# T1 sequence (Q9NWZ3 1-460): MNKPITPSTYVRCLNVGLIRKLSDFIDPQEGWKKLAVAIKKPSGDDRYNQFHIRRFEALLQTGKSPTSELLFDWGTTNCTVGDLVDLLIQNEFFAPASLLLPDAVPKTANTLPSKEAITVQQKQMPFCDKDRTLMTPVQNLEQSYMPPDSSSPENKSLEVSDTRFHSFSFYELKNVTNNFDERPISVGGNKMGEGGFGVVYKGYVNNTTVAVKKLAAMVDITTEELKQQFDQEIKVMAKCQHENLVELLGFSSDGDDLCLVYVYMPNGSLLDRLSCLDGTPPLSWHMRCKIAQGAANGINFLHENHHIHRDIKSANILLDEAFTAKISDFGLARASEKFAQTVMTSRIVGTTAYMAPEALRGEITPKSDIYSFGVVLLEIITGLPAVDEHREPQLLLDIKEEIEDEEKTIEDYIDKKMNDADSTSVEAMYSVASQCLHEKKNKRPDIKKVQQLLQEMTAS
# Assay: Western blot degradation of IRAK4
# Format: cell-based
# Settings: hPBMC Cell; 24 hours
# Experimental: Conventional Western blot assay was performed to evaluate the effects of the compounds of the present disclosure on the expression of target proteins in cells.
# (1) Cell Seeding and Protein Harvesting: The selected cells were processed according to the cell seeding procedure and protein harvesting procedure in Table II-2.
# (2) To the collected supernatant, 5×SDS sample loading buffer was added, followed by denaturation at 95 °C for 5 minutes. The denatured samples were then separated by SDS-PAGE electrophoresis on a polyacrylamide gel. Proteins were transferred to a nitrocellulose membrane (0.45 μm NC membrane), blocked with blocking buffer at room temperature for 1 hour, and subjected to antibody incubation and development procedures according to the antibody manufacturer's instructions (Cell Signaling Technology).
# Half-Maximal Degradation Concentration value (the drug concentration required for degrading proteins by 50%, abbreviated as DC50) reads method: comparing the grayscale values of Western blot bands from drug-treated samples with those from blank DMSO-treated controls, and identifying the drug concentration range at which the grayscale value is half that of the DMSO-treated control bands.
# DC50 values can be calculated using ImageJ software to measure grayscale values of Western blot bands from drug-treated samples. The concentration-response curve is fitted to estimate the drug concentration corresponding to half the grayscale value.
# Target protein remaining (%) refers to the percentage of target protein remaining in cells after treatment with protein degrader compounds.
# Calculation method for target protein remaining (%): Use ImageJ software to measure grayscale values of Western blot bands from drug (protein degrader)-treated samples. The grayscale value of drug-treated bands is divided by that of internal control protein bands, and the resulting quotient is normalized to obtain the relative percentage of remaining target protein after protein degrader treatment.
# Target protein degradation rate (%)=1−target protein remaining (%).
row,Degradation of substrate protein IRAK4 (substrate protein remaining %),SMILES
1,A (0%≤substrate protein remaining %≤80%),"O=C1CCN(N2C(=O)c3ccc(N4CCC(N5CCN(C[C@H]6CC[C@H](n7cc(NC(=O)c8cnn9ccc(N%10C[C@H]%11C[C@@H]%10CO%11)nc89)c(C(F)F)n7)CC6)CC5)CC4)cc3C2=O)C(=O)N1 [GT-05122, 5-((1R,4R)-2-oxa-5-azabicyclo[2.2.1]heptan-5-yl)-N-(3-(difluoromethyl)-1-((1r,4R)-4-((4-(1-(2-(2,4-dioxotetrahydropyrimidin-1(2H)-yl)-1,3-dioxoisoindolin-5-yl)piperidin-4-yl)piperazin-1-yl)methyl)cyclohexyl)-1H-pyrazol-4-yl)pyrazolo[1,5-a]pyrimidine-3-carboxamide]"
2,A (0%≤substrate protein remaining %≤80%),"COc1cc2nn([C@H]3CC[C@H](CN4CCN(C5CCN(c6ccc7c(c6)C(=O)N(N6CCC(=O)NC6=O)C7=O)CC5(F)F)CC4)CC3)cc2cc1NC(=O)c1cccc(C(F)(F)F)c1 (stereo partly drawn) [GT-08672, N-(2-((1r,4r)-4-((4-(1-(2-(2,4-dioxotetrahydropyrimidin-1(2H)-yl)-1,3-dioxoisoindolin-5-yl)-3,3-difluoropiperidin-4-yl)piperazin-1-yl)methyl)cyclohexyl)-6-methoxy-2H-indazol-5-yl)-3-(trifluoromethyl)benzamide]"
3,A (0%≤substrate protein remaining %≤80%),"COc1cc2nn(C3CCN(Cc4ccc5c(c4)CN(N4CCC(=O)NC4=O)C5=O)CC3)cc2cc1NC(=O)c1cccc(C(F)(F)F)c1 [GT-04876, N-(2-(1-((2-(2,4-dioxotetrahydropyrimidin-1(2H)-yl)-1-oxoisoindolin-5-yl)methyl)piperidin-4-yl)-6-methoxy-2H-indazol-5-yl)-3-(trifluoromethyl)benzamide]"
4,A (0%≤substrate protein remaining %≤80%),"O=C1CCN(N2C(=O)c3ccc(N4CCC(CN5CCC(n6cc(NC(=O)c7cnn8ccc(N9C[C@H]%10C[C@@H]9CO%10)nc78)c(C(F)F)n6)CC5)CC4)cc3C2=O)C(=O)N1 [GT-05056, 5-((1R,4R)-2-oxa-5-azabicyclo[2.2.1]heptan-5-yl)-N-(3-(difluoromethyl)-1-(1-((1-(2-(2,4-dioxotetrahydropyrimidin-1(2H)-yl)-1,3-dioxoisoindolin-5-yl)piperidin-4-yl)methyl)piperidin-4-yl)-1H-pyrazol-4-yl)pyrazolo[1,5-a]pyrimidine-3-carboxamide]"
5,A (0%≤substrate protein remaining %≤80%),"O=C1CCN(N2C(=O)c3ccc(N4CCN(C[C@H]5CC[C@H](n6cc(NC(=O)c7cnn8ccc(N9C[C@H]%10C[C@@H]9CO%10)nc78)c(C(F)F)n6)CC5)CC4)c(F)c3C2=O)C(=O)N1 [GT-05827, 5-((1R,4R)-2-oxa-5-azabicyclo[2.2.1]heptan-5-yl)-N-(3-(difluoromethyl)-1-((1r,4R)-4-((4-(2-(2,4-dioxotetrahydropyrimidin-1(2H)-yl)-4-fluoro-1,3-dioxoisoindolin-5-yl)piperazin-1-yl)methyl)cyclohexyl)-1H-pyrazol-4-yl)pyrazolo[1,5-a]pyrimidine-3-carboxamide]"
6,A (0%≤substrate protein remaining %≤80%),"COc1ccc2cn(C3CCN(CC4CCN(c5ccc6c(c5)C(=O)N(N5CCC(=O)NC5=O)C6=O)CC4)CC3)nc2c1NC(=O)c1cccc(C(F)(F)F)c1 [GT-04885, N-(2-(1-((1-(2-(2,4-dioxotetrahydropyrimidin-1(2H)-yl)-1,3-dioxoisoindolin-5-yl)piperidin-4-yl)methyl)piperidin-4-yl)-6-methoxy-2H-indazol-7-yl)-3-(trifluoromethyl)benzamide]"
7,A (0%≤substrate protein remaining %≤80%),"COc1cc2nn(C3CCN(CC4CCN(c5cccc6c5C(=O)N(N5CCC(=O)NC5=O)C6=O)CC4)CC3)cc2cc1NC(=O)c1cccc(C(F)(F)F)c1 [GT-05815, N-(2-(1-((1-(2-(2,4-dioxotetrahydropyrimidin-1(2H)-yl)-1,3-dioxoisoindolin-4-yl)piperidin-4-yl)methyl)piperidin-4-yl)-6-methoxy-2H-indazol-5-yl)-3-(trifluoromethyl)benzamide]"
8,A (0%≤substrate protein remaining %≤80%),"COc1ccc2cn(C3CCN(Cc4ccc5c(c4)CN(N4CCC(=O)NC4=O)C5=O)CC3)nc2c1NC(=O)c1cccc(C(F)(F)F)c1 [GT-04884, N-(2-(1-((2-(2,4-dioxotetrahydropyrimidin-1(2H)-yl)-1-oxoisoindolin-5-yl)methyl)piperidin-4-yl)-6-methoxy-2H-indazol-7-yl)-3-(trifluoromethyl)benzamide]"
9,A (0%≤substrate protein remaining %≤80%),"COc1cc2nn([C@H]3CC[C@H](CN4CCN(c5cccc6c5C(=O)N(N5CCC(=O)NC5=O)C6=O)CC4)CC3)cc2cc1NC(=O)c1cccc(C(F)(F)F)n1 [GT-08655, N-(2-((1r,4r)-4-((4-(2-(2,4-dioxotetrahydropyrimidin-1(2H)-yl)-1,3-dioxoisoindolin-4-yl)piperazin-1-yl)methyl)cyclohexyl)-6-methoxy-2H-indazol-5-yl)-6-(trifluoromethyl) picolinamide]"
10,A (0%≤substrate protein remaining %≤80%),"CC(C)(O)c1cc2nn(C3CCN(CC4CCN(C5CCN(c6ccc7c(c6)C(=O)N(N6CCC(=O)NC6=O)C7=O)CC5)CC4)CC3)cc2cc1NC(=O)c1cccc(C(F)(F)F)n1 [GT-05290, N-(2-(1-((1′-(2-(2,4-dioxotetrahydropyrimidin-1(2H)-yl)-1,3-dioxoisoindolin-5-yl)-[1,4′-bipiperidin]-4-yl)methyl)piperidin-4-yl)-6-(2-hydroxypropan-2-yl)-2H-indazol-5-yl)-6-(trifluoromethyl) picolinamide]"
11,A (0%≤substrate protein remaining %≤80%),"COc1cc2nn([C@H]3CC[C@H](CN4CCN(c5cc(F)c6c(c5)C(=O)N(N5CCC(=O)NC5=O)C6=O)CC4)CC3)cc2cc1NC(=O)c1cccc(C(F)(F)F)n1 [GT-08657, N-(2-((1r,4r)-4-((4-(2-(2,4-dioxotetrahydropyrimidin-1(2H)-yl)-7-fluoro-1,3-dioxoisoindolin-5-yl)piperazin-1-yl)methyl)cyclohexyl)-6-methoxy-2H-indazol-5-yl)-6-(trifluoromethyl) picolinamide]"
12,A (0%≤substrate protein remaining %≤80%),"COc1cc2nn([C@H]3CC[C@H](CN4CCN(C5CCN(c6ccc7c(c6)C(=O)N(N6CCC(=O)NC6=O)C7=O)CC5)CC4)CC3)cc2cc1NC(=O)c1cccc(C(F)(F)F)c1 [GT-08671, N-(2-((1r,4r)-4-((4-(1-(2-(2,4-dioxotetrahydropyrimidin-1(2H)-yl)-1,3-dioxoisoindolin-5-yl)piperidin-4-yl)piperazin-1-yl)methyl)cyclohexyl)-6-methoxy-2H-indazol-5-yl)-3-(trifluoromethyl)benzamide]"
13,A (0%≤substrate protein remaining %≤80%),"CC(C)Nc1cc(-n2ccc3cc(C#N)cnc32)ncc1C(=O)NC1CCN(CC2CCN(c3cccc4c3C(=O)N(N3CCC(=O)NC3=O)C4=O)CC2)CC1 [GT-05814, 6-(5-cyano-1H-pyrrolo[2,3-b]pyridin-1-yl)-N-(1-((1-(2-(2,4-dioxotetrahydropyrimidin-1(2H)-yl)-1,3-dioxoisoindolin-4-yl)piperidin-4-yl)methyl)piperidin-4-yl)-4-(isopropylamino) nicotinamide]"
14,A (0%≤substrate protein remaining %≤80%),"COc1cc2nn([C@H]3CC[C@H](CN4C5CC4CN(c4ccc6c(c4)C(=O)N(N4CCC(=O)NC4=O)C6=O)C5)CC3)cc2cc1NC(=O)c1cccc(C(F)(F)F)c1 [GT-08666, N-(2-((1r,4r)-4-((3-(2-(2,4-dioxotetrahydropyrimidin-1(2H)-yl)-1,3-dioxoisoindolin-5-yl)-3,6-diazabicyclo[3.1.1]heptan-6-yl)methyl)cyclohexyl)-6-methoxy-2H-indazol-5-yl)-3-(trifluoromethyl)benzamide]"
15,A (0%≤substrate protein remaining %≤80%),"CC(C)Nc1cc(-n2ccc3cc(C#N)cnc32)ncc1C(=O)NC1CCN(Cc2ccc3c(c2)C(=O)N(N2CCC(=O)NC2=O)C3=O)CC1 [GT-05326, 6-(5-cyano-1H-pyrrolo[2,3-b]pyridin-1-yl)-N-(1-((2-(2,4-dioxotetrahydropyrimidin-1(2H)-yl)-1,3-dioxoisoindolin-5-yl)methyl)piperidin-4-yl)-4-((isopropyl)amino) nicotinamide]"
